“Also recorded” adds a separate entry of the source.
Columns and labels:
[1] = tested on: NMD and non-NMD isoforms of Srsf11, Ptbp2, Tra2b, Hnrnpl and Psd-95 (cellular NMD activity); assay: RT-qPCR of endogenous NMD and non-NMD isoforms to monitor cellular NMD activity; format: cell-based, mouse
Description: In our method, we measure the individual abundance of NMD-sensitive isoforms and that of their non-NMD counterparts via quantitative real-time PCR (qPCR). The NMD isoforms are first examined for differential expression between a treatment and a control condition. An increase in a NMD isoform may be due to NMD inhibition, transcriptional activation or a change in alternative splicing favoring the NMD isoform. These three scenarios can be distinguished by examining the expression of the non-NMD counterparts. Genuine NMD regulation, transcriptional activation and alternative splicing regulation would lead to no change, upregulation and down-regulation of the NMD-insensitive isoforms, respectively (FIG. 6A).
One technical difficulty of our method is designing RT-qPCR primers specific to the cassette exon-skipping isoform, whose entire sequence is contained in the inclusion isoform. To specifically detect an inclusion isoform, we designed a primer entirely annealing to the cassette exon (exon B in FIG. 1A). For the exclusion isoform, junction primers annealing to the exon-skipping junction appear to be the only choices. This can be either a reverse primer (FIG. 1A) with its 5′ portion matching the downstream constitutive exon (exon C) and its 3′ portion matching the upstream constitutive exon (exon A) or a forward primer (not shown) with its 5′ and 3′ portions matching the upstream and downstream exons, respectively. The challenge is herein illustrated with reverse primers but also applies to forward primers. Many exon-skipping junction primers are able to amplify the inclusion isoforms (FIGS. 7A-D). The longer the 3′ portion of the junction primer annealing to the upstream constitutive exon, the easier the primer amplifies the inclusion transcripts (FIG. 7B). Some exon-skipping junction primers with 3′ portions as short as six nucleotides, as we've observed, can still anneal to and detect the inclusion isoform at 55-60° C., albeit at a lower efficiency than its detection of the exclusion isoform. On the other hand, a longer 5′ portion and a shorter 3′ portion increase the possibility of the primer annealing to the exon B-exon C junction because of the sequence similarity around 5′ splice sites (FIGS. 7C-D). We therefore had to identify NMD-associated cassette exons containing a 3′ end unlike that of its upstream exon. We then screened multiple exon-skipping junction primers for one that amplified only the exclusion isoform and not the inclusion isoform. All primer pairs were tested and confirmed for their specificity, RT-qPCR efficiency and linear dynamic ranges (FIG. 10). Finally, two stably expressed housekeeping genes, Gapdh and Sdha, were used as internal controls for normalization by geometric averaging (Vandesompele et al., 2002. Genome Biol 3: RESEARCH0034).
Because our method can be used on its own can to infer NMD regulation with a low false positive rate, one of its applications is unbiased screening for changes in cellular NMD activity. We screened a small panel of widely used pharmacological inhibitors for their effects on NMD. The expression of both the NMD and non-NMD isoforms of Ptbp2, Srsf11, Tra2b, Hnrnpl and Psd-95 were simultaneously measured before and after drug treatment. When the levels of all of the NMD isoforms were altered by a chemical in the same direction, the expression of the NMD and non-NMD isoforms under the treatment and control conditions was then subjected to ANOVA analysis to determine differential regulation of the two isoforms. We were interested in drugs that affected the NMD isoforms across the board and more strongly than the non-NMD counterparts. With this criterion, we identified thapsigargin as having potent activity in blocking cellular NMD.
Neuro-2a (N2a) cells were maintained in N2a complete media consisting of L-glutamine-free Dulbecco's modified Eagle's medium (DMEM), 10% FBS and 1× GlutaMAX at 37° C. […]

[2] = tested on: immediate early genes c-fos, c-Jun and Pip92; assay: RT-qPCR of immediate early genes; format: cell-based, mouse
Description: We then examined whether an increase in intracellular Ca^2+ is sufficient to inhibit NMD. We applied a wide dose range of ouabain, a cardiac glycoside used by Nickless et al., and measured the abundance of both NMD and non-NMD isoforms at various time-points. […] To further test whether increased intracellular Ca^2+ was sufficient to inhibit NMD, we treated the cells with ionomycin, a Ca^2+ ionophore, as another method of raising the cytoplasmic Ca^2+ concentration.
Neuro-2a (N2a) cells were maintained in N2a complete media consisting of L-glutamine-free Dulbecco's modified Eagle's medium (DMEM), 10% FBS and 1× GlutaMAX at 37° C. Thapsigargin (VWR, cat. no. 89161-410), ionomycin (Fisher Scientific, cat. no. AG-CN2-0416-M001) and ouabain octahydrate (Fisher Scientific, cat. no. 80055-364) were dissolved in DMSO and stored at −80° C. For the application of these chemicals, 750,000 cells were plated on 35 mm BioLite TC plates and incubated with 2 ml of N2a complete media overnight before treatment with the drugs at the indicated concentrations. […]
Trizol (Life Technologies, cat. no. 15596-018) was directly added to the cells or mouse brain tissues to extract total RNA following the Trizol Reagent standard protocol. […] RNA concentrations were measured using a Nanodrop 2000c (Thermo Fisher). […] Relative expression (fold changes) was calculated using the ΔΔCt method. […]

Structure (SMILES)	levels of the NMD isoforms ([1]; 1 to 100 μM)	expression of immediately early genes c-Jun and Pip92 ([2]; ionomycin treatment)	NMD isoforms at high concentration ([1]; 200 or 400 μM)	changes in cellular NMD activity ([1]; wide dose range, various time-points, N2a cells)	immediate early genes c-fos and Pip92 ([2]; 200 or 400 μM, N2a cells)
C[C@H](CCC(=O)O)C[C@H](C)C[C@H](C)C(=O)/C=C(\O)[C@H](C)C[C@H](C)C/C=C/[C@@H](C)[C@@H](O)[C@@H](C)[C@@H](O)C[C@@H]1CC[C@@](C)([C@H]2CC[C@@](C)([C@@H](C)O)O2)O1 [ionomycin]	did not alter	increased expression	–	–	–
C[C@@H]1O[C@@H](O[C@H]2C[C@@H](O)[C@]3(CO)[C@H]4[C@H](O)C[C@]5(C)[C@@H](C6=CC(=O)OC6)CC[C@]5(O)[C@@H]4CC[C@]3(O)C2)[C@H](O)[C@H](O)[C@H]1O [ouabain]	–	–	not substantially enhanced	only minimal changes; also recorded: did not unequivocally affect NMD activity	clearly stimulated; also recorded: clearly induced

From patent US20180010188A1, “METHOD FOR DETECTING NONSENSE-MEDIATED RNA DECAY” (The Regents of the University of California, priority 2016, published 2018)
